{
  "source": "patent US20210196731A1",
  "about": "“COMPOSITIONS AND METHODS FOR TREATING OCULAR INFLAMMATION AND OCULAR SCARRING” (priority 2018, published 2021)",
  "key": {"αSMA": {"test_system": "αSMA", "assay": "Cellular response to individual exogenous ASA-triggered lipid mediators (αSMA western blot)", "type": "cell-based, human", "conditions": "48 hrs", "protocol": "Cells were lysed in lysis buffer (PhosphoSafe Extraction Reagent, Novagen) containing a protease inhibitor cocktail (P2714, Sigma-Aldrich). Crude protein lysate was quantified using a Pierce BCA protein assay kit (ThermoFisher, Mississauga, ON) and 10 ug from each sample was resolved using a Novex WedgeWell 4-20% tris-glycine gel (Invitrogen). Using an iBlot Gel Transfer Device (IB1001, Invitrogen), the separated protein was transferred to a nitrocellulose membrane (1B301001, iBlot Transfer Stack, Invitrogen) which was then blocked with 5% (w/v) bovine serum albumin (Sigma-Aldrich) in Tris buffered saline (TBST) for 1 hour at room temperature. The membranes were incubated overnight at 4° C. with primary antibody diluted in TBST containing 5% BSA (w/vol). Primary antibodies used were as follows: collagen 1 (ab138492, Abcam), αSMA (ab5694, Abcam), MMP9 (ab38898, Abcam), PPARγ (sc-7273, SantaCruz Biotechnology), SMAD2/3 (ab63672, Abcam), pSMAD2/3 (ab63399, Abcam) and GAPDH (sc-47724, Santa Cruz Biotechnology, Inc.). After incubation with primary antibodies, the blots were washed and hybridized with 1:3000 (v/v) dilutions of the appropriate goat anti-rabbit or anti-mouse IgG conjugated with horseradish peroxidase ([…], respectively, both from Bio-Rad Laboratories, Inc.). Visualization was accomplished by applying WesternBright Quantum chemiluminescent reagent (Advansta, Inc.), with GAPDH used as a protein loading control. Imaging and relative densiometric quantification was accomplished using a ChemiDoc MP System (Bio-Rad Laboratories, Inc.) connected to Image Lab (Version 6, Bio-Rad Laboratories, Inc.).\nFrom the lipid mediator secretion assays, we see that exposure to ASA or APHS±a PLA2-a results in the generation of significant quantities of pro-resolving products 5-HETE, 11-HETE, 15-HETE and/or 17-OHDHA. The aim of this experiment was to assess the effects (both individually and in combination) of these lipid mediators at mitigating the induction of αSMA by aqueous humor growth factors. To this end, multiple primary HTCF cell lines were cultured in DMEM w/10% FBS in 6-well culture plates, incubated at 37 C and 5% CO2, until 80% confluent. The culture media was removed, wells washed with PBS, and then fresh DMEM w/0% FBS was added. After 24 hrs of serum starvation, one of 14 experimental treatments were applied for 48 hrs: 1) vehicle control (DMEM w/0% FBS), and 2) AHGFs (DMEM w/0% FBS and 2 ng/ml each of TGFB1, TGFB2, VEGF, CCN2), and 3-5) AHGFs/5-HETE (DMEM w/0% FBS, 2 ng/ml each of TGFB1, TGFB2, VEGF, CCN2, and 10, 100, or 1000 nM of 5-hydroxyeicosatetraenoic acid), and 6-8) AHGFs/11-HETE (DMEM w/0% FBS, 2 ng/ml each of TGFB1, TGFB2, VEGF, CCN2, and 10, 100, or 1000 nM of 11-hydroxyeicosatetraenoic acid), and 9-11) AHGFs/15-HETE (DMEM w/0% FBS, 2 ng/ml each of TGFB1, TGFB2, VEGF, CCN2, and 10, 100, or 1000 nM of 15-hydroxyeicosatetraenoic acid), and 12-14) AHGFs/17-OHDHA (DMEM w/0% FBS, 2 ng/ml each of TGFB1, TGFB2, VEGF, CCN2, and 10, 100, or 1000 nM of 17-hydroxy-docosahexaenoic acid). After 48 hrs exposure cellular protein lysate was collected and assessed by western blot with primary antibodies for αSMA and GAPDH, as described previously."}, "HTCFs [1]": {"test_system": "HTCFs", "assay": "Collagen Contraction Assay II (dose dependence)", "type": "cell-based, human", "conditions": "gentamicin alone, 100-1000 μg/ml, four days (FIG. 8A)", "experimental": "(§1) The cell-collagen solution was pipetted gently to ensure homogenous distribution of HTCFs while avoiding the production of air bubbles, then 500 ul were pipetted into each well of a 24-well tray. Collagen constructs were allowed to polymerize at 37 C for 45 minutes before adding low serum culture media containing DMEM, 2% Fetal Bovine Serum (FBS), 1% penicillin/streptomycin (P/S).\nTension was allowed to build up within the tethered matrix at 37 C and 5% CO2 for 72 hours before a sterile spatula was used to detach each collagen construct from the edges of the culture well. Plates were then immediately scanned on a flat bed laser scanner once per 24 hours for a total of 4 days. The surface area of each collagen construct was measured using ImageJ (NIH) and standardized against the baseline surface area measurement to express changes in area as a percentage of original surface area.\nThe gentamicin concentrations assessed were delivered in a solution contained DMEM with 2% FBS, 1% penicillin/streptomycin and either 100, 250, 500, 750 or 100 μg/ml gentamicin (Sigma-Aldrich, CAT. NO: G1397). The ASA concentrations assessed were delivered in a solution of DMEM with 2% FBS, 1% penicillin/streptomycin and either 500, 1000 or 1500 μg/ml ASA (Sigma-Aldrich, CAT. NO: A5376). […]"}, "HTCFs [2]": {"test_system": "HTCFs", "assay": "Collagen Contraction Assay IV (AHGF induced, ASA and gentamicin vs mitomycin C)", "type": "cell-based, human", "conditions": "ASA 1500 μg/ml and/or gentamicin 750 μg/ml; comparator mitomycin C 0.2 mg/ml for 4 minutes", "experimental": "as §1\nTension was allowed to build up within the tethered matrix at 37 C and 5% CO2 for 72 hours before a sterile spatula was used to detach each collagen construct from the edges of the culture well. Plates were then immediately scanned on a flat bed laser scanner and then periodically for a total of 4 days. The surface area of each collagen construct was measured using ImageJ (NIH) and standardized against the baseline surface area measurement to express changes in area as a percentage of original surface area.\nIn this modification of the assay, AHGFs are added to all culture media the collagen constructs are exposed to—from casting of the collagen constructs to the conclusion of contraction. The experimental treatment solutions—all also containing AHGFs—were added 30 minutes prior to detaching the collagen constructs from the culture wells and remained until experimental conclusion. […] DMEM w/2% FBS was added for the remainder of the experiment)."}, "HTCFs [3]": {"test_system": "HTCFs", "assay": "Lipid Mediator Secretion Assay II (ASA or APHS with and without gentamicin, LC-MS/MS)", "type": "cell-based, human", "conditions": "inflammatory cytokine induced HTCFs, gentamicin 250 or 500 μg/ml", "protocol": "To this end, as before, multiple primary HTCF cell lines were cultured in DMEM w/10% FBS in 6-well culture plates, incubated at 37° C. and 5% CO2, until 90% confluent. The culture media was removed, wells washed with PBS, and then fresh DMEM w/0% FBS was added. After 24 hrs of serum starvation, fresh DMEM w/0% FBS was added, this time containing a physiologically relevant inflammation/wound healing induction mixture (1 ng/ml each of: IL-1b, TNFa, IFNγ, TGFb). After 12 hrs incubation, the induction media was removed, the wells were washed with PBS and fresh DMEM w/0% FBS was added containing one of ten experimental treatments for an incubation period of 48 hrs: 1) non-induced control (NIC: received DMEM w/0% FBS instead of the induction media), and 2) CytoM1+TGFB1 (DMEM w/0% FBS and 1 ng/ml each of: IL-1b, TNFa, IFNγ, TGFb), and 3) CytoM1/TGFB1/Gent250 (DMEM w/0% FBS, 1 ng/ml each of TGFB1, TGFB2, VEGF, CCN2 and 250 μg/ml gentamicin), and 4) CytoM1/TGFB1/Gent500 (DMEM w/0% FBS, 1 ng/ml each of TGFB1, TGFB2, VEGF, CCN2 and 500 μg/ml gentamicin), and 5) CytoM1/TGFB1/ASA500 (DMEM w/0% FBS, 1 ng/ml each of TGFB1, TGFB2, VEGF, CCN2, and 500 μg/ml ASA), and 6) CytoM1/TGFB1/ASA500/Gent250 (DMEM w/0% FBS, 1 ng/ml each of TGFB1, TGFB2, VEGF, CCN2, 500 μg/ml ASA and 250 μg/ml gentamicin), and 7) CytoM1/TGFB1/ASA1000 (DMEM w/0% FBS, 1 ng/ml each of TGFB1, TGFB2, VEGF, CCN2 and 1000 μg/ml ASA), and 8) CytoM1/TGFB1/ASA1000/Gent500 (DMEM w/0% FBS, 1 ng/ml each of TGFB1, TGFB2, VEGF, CCN2, 1000 μg/ml ASA, and 500 μg/ml gentamicin), and 9) CytoM1/TGFB1/APHS12 (DMEM w/0% FBS, 1 ng/ml each of TGFB1, TGFB2, VEGF, CCN2 and 12 μg/ml o-(acetoxyphenyl)hept-2-ynyl sulfide (APHS), and 10) CytoM1/TGFB1/APHS12/Gent250 (DMEM w/0% FBS, 1 ng/ml each of TGFB1, TGFB2, VEGF, CCN2, 12 μg/ml o-(acetoxyphenyl)hept-2-ynyl sulfide (APHS) and 250 μg/ml gentamicin). At 6, 12, 24 and 48 hrs after addition of the experimental treatments, 250 ul of supernatant was removed from each well, replaced with 250 ul of fresh DMEM w/0% FBS, and stored at −80° C. for subsequent LC-MS/MS analysis. After 48 hrs, the wells were washed with ice cold PBS three times and total cellular protein from the HTCF monolayer was collected for quantification and subsequent western blot analyses. The absolute quantity of protein within each culture well's HTCF monolayer was used as a means to standardize the relative secretion of lipid mediators by HTCFs into the culture well's supernatant.\nThis is a well-established method to determine the relative activity of cyclooxygenase, acetyl-COX2 and lipoxygenase biosynthetic pathways. In brief, the ratios of the integrated areas of the chromatographic peaks corresponding to each analyte and the integrated areas of the peaks corresponding to each analyte's internal standard (with known absolute quantity) are used to determine the relative quantity of each analyte in a given sample. After supernatant sample collection, 250 ul of methanol containing 100 μg of each deuterated internal standard was added. Samples were then vigorously vortexed and centrifuged at 10,000 g for 10 min before loading onto solid-phase extraction cartridges (Strata-X 33 um Polymeric Reversed Phase, 10 mg, Phenomenex 8B-S100-AAK), that were previously activated with 2 ml methanol and rinsed with 2 ml water. […] After washing with 5 ml water, extracts were eluted with 1 ml methanol. Solvent was then evaporated under vacuum in a SpeedVac centrifuge, and the extract was resuspended in 100 ul acetonitrile/water 60:40 (v/v). An aliquot of 20 ul was injected into the LC-MS/MS system for analysis. […] A Sciex Triple Quad 6500+ mass spectrometer with multiple reaction monitoring was used in negative ion mode. The chromatographic profile of the ion count for each m/z transition was monitored, and the area under the peaks (ion intensity vs elution time) was integrated using commercial software (MultiQuant, Sciex)."}, "[4]": {"test_system": "human Tenon's capsule fibroblasts (HTCFs)", "assay": "Collagen Contraction Assay I (delayed release fibroblast populated collagen lattice)", "type": "cell-based", "conditions": "gentamicin 1000 μg/ml and/or ASA 2000 μg/ml, 15 minutes twice daily, four day assay, vs vehicle control", "experimental": "The delayed release fibroblast populated collagen lattice model was used to assess inhibition of gel contraction [58] by ASA and gentamicin. […] Cell free collagen lattices were prepared identically, however to isolate the effects of HTCFs alone on collagen, constructs without HTCFs were cast as a negative control. The cell-collagen solution was pipetted gently to ensure homogenous distribution of HTCFs while avoiding the production of air bubbles, then 500 ul were pipetted into each well of a 24-well tray. Collagen constructs were allowed to polymerize at 37 C for 45 minutes before adding low serum culture media containing DMEM, 2% Fetal Bovine Serum (FBS), 1% penicillin/streptomycin (P/S).\nTension was allowed to build up within the tethered matrix at 37 C and 5% CO2 for 72 hours before a sterile spatula was used to detach each collagen construct from the edges of the culture well. Plates were then immediately scanned on a flat bed laser scanner and then once per hour for the first 12 hours, then daily for a total of 4 days. The surface area of each collagen construct was measured using ImageJ (NIH) and standardized against the baseline surface area measurement to express changes in area as a percentage of original surface area.\nVehicle control treatment solution comprised of DMEM with 2% FBS and 1% penicillin/streptomycin. The gentamicin treatment solution contained DMEM with 2% FBS, 1% penicillin/streptomycin and 1000 μg/ml gentamicin (w/vol) (Sigma-Aldrich, CAT. NO: G1397). The ASA treatment solution contained DMEM with 2% FBS, 1% penicillin/streptomycin and 2000 μg/ml ASA (w/vol) (Sigma-Aldrich, CAT. NO: A5376). The gentamicin-ASA combination treatment solution (Gent+ASA) contained DMEM with 2% FBS, 1% penicillin/streptomycin, 1000 μg/ml gentamicin (w/vol.) and 2000 μg/ml ASA (w/vo).\nCulture media was removed from collagen constructs twice daily and replaced with one of the four treatment solutions for a duration of 15 minutes. […]"}},
  "note": "Entries after “also recorded” stand apart in the source; their conditions may differ.",
  "data": [
    {"molecule": "CCCCC/C=C\\C/C=C\\C/C=C\\C=C\\[C@@H](O)CCCC(=O)O", "note": "[5-HETE, 5-hydroxyeicosatetraenoic acid]", "values": [
      {"measurement": "AHGF-induced expression of αSMA", "setting": "αSMA; lipid mediator at 100 nM", "result": "significantly reduced"},
      {"measurement": "AHGF-induced expression of αSMA", "setting": "αSMA; lipid mediator at 1000 nM", "result": "significantly reduced"}
    ]},
    {"molecule": "CCCCC/C=C\\C=C\\C(O)C/C=C\\C/C=C\\CCCC(=O)O", "note": "(stereo not shown) [11-HETE, 11-hydroxyeicosatetraenoic acid]", "values": [
      {"measurement": "AHGF-induced αSMA expression", "setting": "αSMA; lipid mediator at 10, 100, or 1000 nM", "result": "did not significantly affect AHGF-induced αSMA expression"}
    ]},
    {"molecule": "CCCCC[C@H](O)/C=C/C=C\\C/C=C\\C/C=C\\CCCC(=O)O", "note": "[15-HETE, 15-hydroxyeicosatetraenoic acid]", "values": [
      {"measurement": "AHGF-induced expression of αSMA", "setting": "αSMA; lipid mediator at 100 nM", "result": "significantly reduced"}
    ]},
    {"molecule": "CC/C=C\\CC(O)/C=C/C=C\\C/C=C\\C/C=C\\C/C=C\\CCC(=O)O", "note": "(stereo not shown) [17-OHDHA, 17-hydroxy-docosahexaenoic acid]", "values": [
      {"measurement": "AHGF-induced expression of αSMA", "setting": "αSMA; lipid mediator at 100 nM", "result": "significantly reduced"},
      {"measurement": "AHGF-induced expression of αSMA", "setting": "αSMA; lipid mediator at 1000 nM", "result": "significantly reduced"}
    ]},
    {"molecule": "gentamicin", "values": [
      {"measurement": "HTCF-mediated collagen contraction", "setting": "HTCFs [1]", "result": "no significant treatment effects found; also recorded: no significant effect on HTCF-mediated collagen contraction"},
      {"measurement": "AHGF induced, HTCF-mediated collagen contraction", "setting": "HTCFs [2]", "result": "no statistically significant effect on collagen contraction"},
      {"measurement": "secretion of PUFA precursors: AA, EPA and DHA", "setting": "HTCFs [3]", "result": "significantly increase the secretion of PUFA precursors"},
      {"measurement": "HTCF mediated collagen contraction", "setting": "[4]", "result": "did not affect collagen contraction until the second day of the four day assay"}
    ]}
  ]
}
